# Patent publication US11953435B2, “Zinc-responsive fluorophores” (Northwestern University, priority 2019, dated 2024)
# “Also recorded” adds a separate entry of the source.
# Tests used:
# BSA = BSA (Bos taurus, UniProt P02769); experiment: Interaction of ZincBY probes with proteins (BSA): emission, absorbance, polarization; format: binding; conditions: for interaction with BSA (in words) / fluorescence turn-on in response to zinc in the presence of BSA / emission maximum in the presence of BSA: 10 mg/mL BSA; for fluorescence turn-on in response to zinc in the presence of BSA: holo vs apo; for polarization: apo and holo forms
# Procedure: Aqueous solutions were prepared by using de-ionized water with resistivity […], obtained using a Milli-Q water purification system. In order to properly compare the photophysical properties of ZincBY-2, ZincBY-3, and ZincBY-4 to ZincBY-1, the photophysical properties of ZincBY-1 we remeasured. Tested values differed from the previously published values (Ref. B2; incorporated by reference in its entirety). It was determined that copper was present in the aqueous buffer used for in vitro analysis of the previous samples. The corrected values are used herein, utilizing buffers that are copper-free. Stock solutions of ZincBY-1, ZincBY-2, ZincBY-3, and ZincBY-4 were prepared at concentrations of 5 mM and stored at −20° C. in aliquots that were used immediately after thawing for each experiment. Unless otherwise stated, all spectroscopic methods were conducted in aqueous buffer containing 50 mM HEPES (pH 7.2) and 0.1 M KNO3. UV-visible spectra were acquired on a PerkinElmer Lambda 650 UV/Vis spectrophotometer using quartz cuvettes from Starna (1 cm path length, 10 cm path length used in extinction coefficient and quantum yield determination). Fluorescence spectra were acquired using a PerkinElmer LS 55 fluorescence spectrophotometer. For measurements containing zinc, 99.0% ZnNO3 hexahydrate (final concentration 5 μM) was used. For experiments analyzing apo probes, N,N,N′,N′-Tetrakis(2-pyridylmethyl)ethylenediamine (TPEN) (final concentration 5 μM) was added to solution. Quantum Yield and Extinction Coefficient Determination. Quantum yields for apo and holo ZincBY-1, ZincBY-2, ZincBY-3, and ZincBY-4 were determined by plotting absorbance vs. fluorescence intensity of solutions containing ZincBY-1, ZincBY-2, ZincBY-3, or ZincBY-4 at probe concentrations ranging from 50-250 nM. Serial dilution was used to make solutions at different concentrations. Fluorescein dissolved in 0.1 N NaOH was used as the quantum yield standard, using a literature-determined quantum yield of 0.95.^3 For all fluorophore solutions, fluorescence excitation was set at 490 nm and fluorescence emission was integrated from 510 nm to 650 nm. Zinc Dissociation Constant. Fluorescence spectra were recorded using zinc probes (ZincBY-1, ZincBY-2, ZincBY-3, or ZincBY-4; 200 nM) and ZnSO4 (various concentrations). The solutions were equilibrated in the dark for 1 h prior to measurement. The concentration of ZnSO4 was varied from 1 μM to 9 mM in buffer solution (50 mM HEPES and 0.1 M KNO3, and pH 7.2) containing 10 mM EGTA. Free Zn^2+ was calculated according to a previously reported method (Ref. B4; incorporated by reference in its entirety). Data was fit to the following one-site binding equation: F=(FminKd+Fmax[Zn^2+])/(Kd+[Zn^2+]) pH Response. The fluorescence spectra of zinc probes (ZincBY-2, ZincBY-3, or ZincBY-4; 200 nM) wasere measured at various pH values (4.5-11). The following buffers were used at 50 mM concentration with 0.1 M KNO3: NaOAc/AcOH (pH 4.0-4.5), MES (pH 5.0-6.5), HEPES (pH 7.0-8.0), CHES (pH 8.5-9.5), CAPS (pH 10.0-11.0). Metal Ion Response. The fluorescence spectra of zinc probes (ZincBY-2, ZincBY-3, or ZincBY-4; 200 nM) were measured in the presence an excess of metal ion including 1 mM KNO3, 1 mM NaNO3, 1 mM CaSO4, 1 mM MgSO4, 15 μM MnSO4, 15 μM (NH4)2Fe(SO4)2, 15 μM NH4Fe(SO4)2, 15 μM CoSO4, 15 μM NiSO4, 15 μM CuSO4, 15 μM [Cu(CH3CN)4]PF6, 15 μM CdSO4, 15 μM Hg(NO3)2, 15 μM Pb(NO3)2, or 15 μM ZnSO4. The fluorescence spectra were compared to that of ZincBY-2 (200 nM), ZincBY-3 (200 nM), or ZincBY-4 (200 nM) in the presence of 10 μM TPEN. Determination of octanol-water partition coefficients (log P). A log P value for each probe was determined by agitating nanomolar solutions of each probe in a 1:1 mixture of HEPES buffer and 1-octanol. Solutions were allowed to settle for 1 h and then the fluorescence intensity of each phase was measured. Standard curves of the fluorescence of known concentrations of probes in both solutions were used to determine concentrations. […]
# [1] = Octanol-water partition coefficient (log P); format: physicochemical; conditions: 1:1 HEPES buffer and 1-octanol
# Procedure: Aqueous solutions were prepared by using de-ionized water with resistivity […], obtained using a Milli-Q water purification system. In order to properly compare the photophysical properties of ZincBY-2, ZincBY-3, and ZincBY-4 to ZincBY-1, the photophysical properties of ZincBY-1 we remeasured. Tested values differed from the previously published values (Ref. B2; incorporated by reference in its entirety). It was determined that copper was present in the aqueous buffer used for in vitro analysis of the previous samples. The corrected values are used herein, utilizing buffers that are copper-free. Stock solutions of ZincBY-1, ZincBY-2, ZincBY-3, and ZincBY-4 were prepared at concentrations of 5 mM and stored at −20° C. in aliquots that were used immediately after thawing for each experiment. Unless otherwise stated, all spectroscopic methods were conducted in aqueous buffer containing 50 mM HEPES (pH 7.2) and 0.1 M KNO3. […] Fluorescence spectra were acquired using a PerkinElmer LS 55 fluorescence spectrophotometer. […] Quantum yields for apo and holo ZincBY-1, ZincBY-2, ZincBY-3, and ZincBY-4 were determined by plotting absorbance vs. fluorescence intensity of solutions containing ZincBY-1, ZincBY-2, ZincBY-3, or ZincBY-4 at probe concentrations ranging from 50-250 nM. […] Fluorescein dissolved in 0.1 N NaOH was used as the quantum yield standard, using a literature-determined quantum yield of 0.95.^3 For all fluorophore solutions, fluorescence excitation was set at 490 nm and fluorescence emission was integrated from 510 nm to 650 nm. […] Fluorescence spectra were recorded using zinc probes (ZincBY-1, ZincBY-2, ZincBY-3, or ZincBY-4; 200 nM) and ZnSO4 (various concentrations). […] Free Zn^2+ was calculated according to a previously reported method (Ref. B4; incorporated by reference in its entirety). […] The fluorescence spectra of zinc probes (ZincBY-2, ZincBY-3, or ZincBY-4; 200 nM) wasere measured at various pH values (4.5-11). […] The fluorescence spectra were compared to that of ZincBY-2 (200 nM), ZincBY-3 (200 nM), or ZincBY-4 (200 nM) in the presence of 10 μM TPEN. […]
# Sequence of BSA (P02769 25-607): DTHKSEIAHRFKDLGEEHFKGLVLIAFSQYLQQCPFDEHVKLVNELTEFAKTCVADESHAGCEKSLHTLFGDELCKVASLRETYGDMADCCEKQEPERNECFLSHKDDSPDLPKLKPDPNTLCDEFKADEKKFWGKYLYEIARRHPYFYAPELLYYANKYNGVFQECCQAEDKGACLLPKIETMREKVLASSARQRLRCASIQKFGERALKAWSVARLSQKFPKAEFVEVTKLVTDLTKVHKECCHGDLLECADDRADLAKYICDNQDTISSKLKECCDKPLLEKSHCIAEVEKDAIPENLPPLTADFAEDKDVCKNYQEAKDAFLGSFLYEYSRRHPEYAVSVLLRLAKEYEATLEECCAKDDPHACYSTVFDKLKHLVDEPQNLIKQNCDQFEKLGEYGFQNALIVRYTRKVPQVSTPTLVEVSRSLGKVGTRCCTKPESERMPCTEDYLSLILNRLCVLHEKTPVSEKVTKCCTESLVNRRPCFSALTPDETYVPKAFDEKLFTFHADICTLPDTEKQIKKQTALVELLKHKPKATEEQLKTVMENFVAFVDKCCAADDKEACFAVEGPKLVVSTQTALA
SMILES,interaction with BSA (in words) (BSA),fluorescence turn-on in response to zinc in the presence of BSA (BSA),LogP [1],polarization (BSA; presence of excess BSA),polarization (BSA; without BSA),emission maximum in the presence of BSA (BSA; apo) [nm],"emission maximum in the presence of BSA (BSA; holo, excited at 480 nm) [nm]"
"COc1ccc2n1[B-](F)(F)[N+]1=C(N(CCN(Cc3ccccn3)Cc3ccccn3)Cc3ccccn3)C=CC1=C2c1c(C)cc(C)cc1C [ZincBY-1, reference compound]",The same interactions can be found,the fluorescence of apo-ZincBY-1 matches that of holo-ZincBY-1; also recorded: no fluorescence turn-on was observed,–,–,–,–,–
"Cc1cc(C)c(C2=C3C=CC(OCCN=[N+]=[N-])=[N+]3[B-](F)(F)n3c2ccc3N(CCN(Cc2ccccn2)Cc2ccccn2)Cc2ccccn2)c(C)c1 [ZincBY-2, N1-(7-(2-azidoethoxy)-5,5-difluoro-10-mesityl-5H-4λ4,5λ4-dipyrrolo[1,2-c:2′,1′-f][1,3,2]diazaborinin-3-yl)-N1,N2,N2-tris(pyridin-2-ylmethyl)ethane-1,2-diamine]",The same interactions can be found,–,~1.25,–,–,–,–
"Cc1cc(C)c(C2=C3C=CC(OCCN)=[N+]3[B-](F)(F)n3c2ccc3N(CCN(Cc2ccccn2)Cc2ccccn2)Cc2ccccn2)c(C)c1 [ZincBY-3, N1-(7-(2-aminoethoxy)-5,5-difluoro-10-mesityl-5H-4λ4,5λ4-dipyrrolo[1,2-c:2′,1′-f][1,3,2]diazaborinin-3-yl)-N1,N2,N2-tris(pyridin-2-ylmethyl)ethane-1,2-diamine]",The same interactions can be found,–,~0.15,–,–,–,–
"CC(=O)NCCOc1ccc2n1[B-](F)(F)[N+]1=C(N(CCN(Cc3ccccn3)Cc3ccccn3)Cc3ccccn3)C=CC1=C2c1c(C)cc(C)cc1C [ZincBY-4, N-(2-((7-((2-(bis(pyridin-2-ylmethyl)amino)ethyl)(pyridin-2-ylmethyl)amino)-5,5-difluoro-10-mesityl-5H-5λ4,6λ4-dipyrrolo[1,2-c:2′,1′-f][1,3,2]diazaborinin-3-yl)oxy)ethyl)acetamide]",binds readily to the lipid transport protein,two-fold increase in fluorescence intensity over its apo form; also recorded: ca. two-fold,~0.33,0.37,0.03,590,575
